This is an account of results in patent US7846944B2, “Pyrazolo-pyridinone compounds and methods of use thereof” (Amgen Inc., priority 2007, dated 2010).

Experiment [1] has as its system TNF-α secretion by LPS-treated THP1 cells. Briefly: Lipopolysaccharide-activated THP1 cell TNF production assay. The experiment is classed as cell-based. Conditions: Homo sapiens, THP-1; LPS, 3 hours, THP1 cells; read-out: IC50 in the THP-1 cellular TNF production assay. The method, then:
Lipopolysaccharide-Activated THP1 Cell TNF Production Assay
THP1 cells were resuspended in fresh THP1 media (RPMI 1640, 10% heat-inactivated FBS, 1×PGS, 1×NEAA, plus 30 μM βME) at a concentration of 1.5×10^6 cells per mL. One hundred microliters of cells per well were plated in a polystyrene 96-well tissue culture plate. 1.5 micrograms per mL of bacterial LPS was prepared in THP1 media and transferred to the first 11 columns of a 96-well polypropylene plate. Column 12 contained only THP1 media for the LO control. Compounds were dissolved in 100% DMSO and serially diluted 3 fold in a polypropylene 96-well microtiter plate (drug plate). Columns 6 and 12 were reserved as controls (HI controls and LO controls respectively) and contained only DMSO. 10 μL of LPS followed by one microliter of inhibitor compound from the drug plate was transferred to the cell plate. The treated cells were induced to synthesize and secrete TNF-α in a 37° C. humidified incubator with 5% CO2 for 3 hours. Fifty microliters of conditioned media was transferred to a 96-well MULTI-ARRAY™ 96-well small spot plate—custom coated with MAB610 containing 100 μL of 2× Read Buffer P supplemented with 0.34 nM AF210NA polyclonal Ab labeled with ruthenium (MSD-Sulfo-TAG™-NHS ester). After an overnight incubation at room temperature with shaking, the reaction was read on the Sector Imager™ 6000. […] The amount of secreted TNF-α in the presence of AMG compounds compared with that in the presence of DMSO vehicle alone (HI control) was calculated using the formula: % control (POC)=(cpd−average LO)/(average HI−averageLO)*100. Data (consisting of POC and inhibitor concentration in μM) was fitted to a 4-parameter equation (y=A+((B−A)/(1+((x/C)^D))), where A is the minimum y (POC) value, B is the maximum y (POC), C is the x (cpd concentration) at the point of inflection and D is the slope factor) using a Levenburg-Marquardt non-linear regression algorithm.

In experiment [2] the target is recombinant human p38α (Homo sapiens, UniProt Q16539). Briefly: Purified and activated recombinant human p38α HTRF kinase assay. Format: biochemical. Conditions: 1 nM p38α, 50 μM ATP, GST-ATF2 substrate, read-out: p38a IC50. Here is the method: Purified and Activated Recombinant Human p38α Assay
recombinant human p38α, sequence (Q16539 whole entry): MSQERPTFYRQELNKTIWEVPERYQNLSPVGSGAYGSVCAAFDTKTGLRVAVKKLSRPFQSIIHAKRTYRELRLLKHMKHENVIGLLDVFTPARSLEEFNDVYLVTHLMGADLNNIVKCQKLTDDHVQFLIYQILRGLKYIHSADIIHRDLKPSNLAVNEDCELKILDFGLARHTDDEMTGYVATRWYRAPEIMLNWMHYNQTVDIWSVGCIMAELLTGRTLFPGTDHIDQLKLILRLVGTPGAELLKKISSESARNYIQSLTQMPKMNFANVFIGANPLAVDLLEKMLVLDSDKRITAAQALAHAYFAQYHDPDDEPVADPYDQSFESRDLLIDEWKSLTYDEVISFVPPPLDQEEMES
• Kinase Reaction Buffer: Kinase reaction buffer for p38α HTRF assays consists of 50 mM Tris-pH 7.5, 5 mM MgCl2, 0.1 mg/mL BSA, 100 μM Na3VO4 and 0.5 mM DTT. • HTRF Detection Buffer: HTRF detection buffer contains 100 mM HEPES-pH 7.5, 100 mM NaCl, 0.1% BSA, 0.05% Tween-20, and 10 mM EDTA. • Serial Dilution of Compounds: Compounds were dissolved in 100% DMSO and serially diluted (3 fold, 10 point) in a polypropylene 96-well microtiter plate (drug plate). The final starting concentration of compounds in the p38α enzymatic assays was 1 μM. Columns 6 and 12 (HI controls and LO controls respectively) in the drug plate were reserved as controls and contained only DMSO. • Kinase Reaction The p38α kinase reactions were carried out in a polypropylene 96-well black round bottom assay plate in total volume of 30 μL kinase reaction buffer. Appropriate concentration of purified and activated enzyme (recombinant human) was mixed with indicated concentration of ATP and 100 nM GST-ATF2-Avitag, in the presence or absence (HI control) of Compound. See table below for actual concentrations. In the absence of substrate, the background was measured as LO control. The reaction was allowed to incubate for 1 hour at RT. • Assay Reagent Concentrations: The final reagent concentrations were 1 nM p38α and 50 μM ATP. […] After 60 minutes incubation at room temperature, the assay plate was read in a Discovery Plate Reader. The wells were excited with coherent 320 nm light and the ratio of delayed ([…] post excitation) emissions at […] (native europium fluorescence) and 665 nm (europium fluorescence transferred to allophycocyanin—an index of substrate phosphorylation) was determined (Park et al, 1999). • Data Analysis: The proportion of substrate phosphorylated in the kinase reaction in the presence of compound compared with that phosphorylated in the presence of DMSO vehicle alone (HI control) was calculated using the formula: % control (POC)=(compound−average LO)/(average HI−average LO)*100. Data (consisting of POC and inhibitor concentration in μM) was fitted to a 4-parameter equation (y=A+((B−A)/(1+((x/C)^D))), where A is the minimum y (POC) value, B is the maximum y (POC), C is the x (compound concentration) at the point of inflection and D is the slope factor, using a Levenburg-Marquardt non-linear regression algorithm.
The inhibition constant (Ki) of the inhibitor was estimated from the IC50 (compound concentration at the point of inflection C) using the Cheng-Prussof equation: Ki=IC50/(1+S/Km), where S is the ATP substrate concentration, and Km is the Michaelis constant for ATP as determined experimentally. All results were expressed as the mean±the standard error of the mean. Data acquisition and non-linear regression algorithms were performed using Activity Base v5.2 and XL-fit software v4.1 respectively. All data was archived using Activity Base v5.2 software.
For orientation: In TR-FRET formats the signal depends on donor and acceptor labels being close together.

Experiment [3] deals with secreted IL-8 by whole blood activated with TNF-α. Briefly: Inhibition of TNF-α induced IL-8 in 50% human whole blood. The experiment is classed as cell-based. Conditions: Homo sapiens, TNF-α (1 nM) induced IL-8, 50% human whole blood; read-out: WB TNF/IL8 IC50. Here is the method: Inhibition of TNF-α Induced IL-8 in 50% Human Whole Blood
Test compounds were evaluated in vitro for the ability to inhibit the production of secreted IL-8 by whole blood activated with TNF-α. Fresh human whole blood was obtained from healthy, non-medicated volunteers in sodium heparin tubes.
Compound Dilution—Assay Procedure
100 ul heparinized whole blood is plated into wells of 96 well flat bottom plates. 50 ul of either 4× compound or DMSO control (Final DMSO concentration is 0.1%) are added to the appropriate wells. Plates are incubated for 1 hour at 37 degrees Celsius. 50 ul of 4×TNF-α ([…], for a final concentration of 1 nM) or control (media alone) is added to the appropriate wells (Total volume=200 ul). Plates are incubated overnight (16-18 hours). 100 ul of supernatant is collected and stored in 96-well round bottom polypropylene plates at −80 degrees Celsius or assayed immediately for IL-8.
Cytokines are measured on antibody (Ab) sandwich ECL based 96-well detection plates. 20 ul of supernatant are added to plate and plate is sealed and shaken at RT for 1 hour. 130 ul of detection Ab cocktail is added and plates are sealed and shaken for 1 hour in the dark at RT. Plates are read on MSD Sector HTS instrument. Data are analyzed and IC50 values generated using Activity Base and XI-fit programs.

`Cc1cnc(C(=O)NC2CC2)cc1-c1cc2cnn(-c3c(F)cccc3F)c2n(C)c1=O` [Example 19, N-cyclopropyl-4-(1-(2,6-difluorophenyl)-7-methyl-6-oxo-6,7-dihydro-1H-pyrazolo[3,4-b]pyridin-5-yl)-5-methyl-2-pyridinecarboxamide]: the values for the IC50 in experiment [1] and in experiment [2] were no more than 175 nM and 18 nM, respectively.
On to `Cc1c(F)cc(C(=O)NC(C)C)cc1-c1cc2cnn(-c3c(F)cccc3F)c2n(C)c1=O` [Example 21, 3-(1-(2,6-difluorophenyl)-7-methyl-6-oxo-6,7-dihydro-1H-pyrazolo[3,4-b]pyridin-5-yl)-5-fluoro-4-methyl-N-(1-methylethyl)benzamide], for which the IC50 was no more than 175 nM in experiment [1] and 7 nM in experiment [2].
The corresponding values for `CNC(=O)c1cc(F)c(C)c(-c2cc3cnn(-c4c(F)cccc4F)c3n(C)c2=O)c1` [Example 22, 3-(1-(2,6-difluorophenyl)-7-methyl-6-oxo-6,7-dihydro-1H-pyrazolo[3,4-b]pyridin-5-yl)-5-fluoro-N,4-dimethylbenzamide] are no more than 175 nM and 6.2 nM.
Taken in the same sequence, the figures for `Cc1c(F)cc(C(=O)NC2CC2)cc1-c1cc2cnn(-c3cc(F)ccc3F)c2n(C)c1=O` [Example 23, N-cyclopropyl-3-(1-(2,5-difluorophenyl)-7-methyl-6-oxo-6,7-dihydro-1H-pyrazolo[3,4-b]pyridin-5-yl)-5-fluoro-4-methylbenzamide] were no more than 175 nM and 3.9 nM.
Taken in the same sequence, the figures for `Cc1ccc(C(=O)NC2CC2)cc1-c1cc2cnn(-c3cc(F)ccc3F)c2n(C)c1=O` [Example 24, N-cyclopropyl-3-(1-(2,5-difluorophenyl)-7-methyl-6-oxo-6,7-dihydro-1H-pyrazolo[3,4-b]pyridin-5-yl)-4-methylbenzamide] were no more than 175 nM and 6.2 nM.
In the case of `Cc1ccc(C(=O)NC2(C)CC2)cc1-c1cc2cnn(-c3cc(F)ccc3F)c2n(C)c1=O` [Example 25, 3-(1-(2,5-difluorophenyl)-7-methyl-6-oxo-6,7-dihydro-1H-pyrazolo[3,4-b]pyridin-5-yl)-4-methyl-N-(1-methylcyclopropyl)benzamide], the values for the IC50 in experiment [1] and in experiment [2] were no more than 175 nM and 1.1 nM, respectively.
Take `Cc1ccc(C(=O)Nc2ccon2)cc1-c1cc2cnn(-c3cc(F)ccc3F)c2n(C)c1=O` [Example 26, 3-(1-(2,5-difluorophenyl)-7-methyl-6-oxo-6,7-dihydro-1H-pyrazolo[3,4-b]pyridin-5-yl)-N-3-isoxazolyl-4-methylbenzamide]: the IC50 is no more than 175 nM in experiment [1] and 2.3 nM in experiment [2].
The corresponding values for `Cc1ccc(C(=O)Nc2nccs2)cc1-c1cc2cnn(-c3c(F)cccc3F)c2n(C)c1=O` [Example 28, 3-(1-(2,6-difluorophenyl)-7-methyl-6-oxo-6,7-dihydro-1H-pyrazolo[3,4-b]pyridin-5-yl)-4-methyl-N-1,3-thiazol-2-ylbenzamide] are no more than 175 nM and 1.1 nM.
Taken in the same sequence, the figures for `Cn1c(=O)c(-c2cc(C(=O)NC3CC3)ccc2CO)cc2cnn(-c3c(F)cccc3F)c21` [Example 32, N-cyclopropyl-3-(1-(2,6-difluorophenyl)-7-methyl-6-oxo-6,7-dihydro-1H-pyrazolo[3,4-b]pyridin-5-yl)-4-(hydroxymethyl)benzamide] were no more than 175 nM and 21 nM.
For the compound `Cn1c(=O)c(-c2cc(C#N)ccc2Cl)cc2cnn(-c3c(F)cccc3F)c21` [Example 33, 4-chloro-3-(1-(2,6-difluorophenyl)-7-methyl-6-oxo-6,7-dihydro-1H-pyrazolo[3,4-b]pyridin-5-yl)benzonitrile], the IC50 in experiment [3] is no less than 2500 nM.
For the compound `Cc1ccc(C(=O)NC2CC2)cc1-c1cc2cnn(-c3c(F)cccc3F)c2n(C)c1=S` [Example 34, N-cyclopropyl-3-(1-(2,6-difluorophenyl)-7-methyl-6-thioxo-6,7-dihydro-1H-pyrazolo[3,4-b]pyridin-5-yl)-4-methylbenzamide], the values for the IC50 in experiment [1] and in experiment [2] were no more than 175 nM and 2.6 nM, respectively.
The corresponding values for `Cc1ccc(C(=O)NC2CC2)cc1-c1cc2cnn(-c3ccc(F)cc3F)c2n(CC(O)CO)c1=O` (centres unmarked) [Example 35, N-cyclopropyl-3-(1-(2,4-difluorophenyl)-7-(2,3-dihydroxypropyl)-6-oxo-6,7-dihydro-1H-pyrazolo[3,4-b]pyridin-5-yl)-4-methylbenzamide] are no more than 175 nM and 34 nM.
Taken in the same sequence, the figures for `CCn1c(=O)c(-c2cc(C(=O)NC3CC3)ccc2C)cc2cnn(-c3ccc(F)cc3F)c21` [Example 46, N-cyclopropyl-3-(1-(2,4-difluorophenyl)-7-ethyl-6-oxo-6,7-dihydro-1H-pyrazolo[3,4-b]pyridin-5-yl)-4-methylbenzamide] were no more than 175 nM and 4.9 nM.
The corresponding values for `Cc1ccc(C(=O)NC2CC2)cc1-c1cc2cnn(-c3ccc(F)cc3)c2n(C)c1=O` [Example 52, N-cyclopropyl-3-(1-(4-fluorophenyl)-7-methyl-6-oxo-6,7-dihydro-1H-pyrazolo[3,4-b]pyridin-5-yl)-4-methylbenzamide] are no more than 175 nM and 6.1 nM.
With `Cn1c(=O)c(-c2cc(C(=O)NC3CC3)ccc2Cl)cc2cnn(-c3ccc(F)cc3)c21` [Example 53, 4-chloro-N-cyclopropyl-3-(1-(4-fluorophenyl)-7-methyl-6-oxo-6,7-dihydro-1H-pyrazolo[3,4-b]pyridin-5-yl)benzamide], the IC50 in experiment [1] was no more than 175 nM; in experiment [2] it was 6 nM.
